Laboratory results: patent US11046657B2, “Pyrimidinone derivatives and uses thereof to neutralize the biological activity of chemokines” (Centre National de la Recherche Scientifique (CNRS), priority 2016, dated 2021)
≈ marks a conversion by molar mass, not a printed value. Entries after “also recorded” stand apart in the source; their conditions may differ. Like-named read-outs stand apart in the source and are kept apart here.

Key:
[1] = Solubility in assay media; type: physicochemical
Procedure: (§1) Their solubility in assay media was evaluated. (2-Hydroxypropyl)-o-cyclodextrin (Cdx) was used as excipient because of its low toxicity and its capacity to increase bioavailability. […] The compound stability was evaluated in PBS only and in PBS/Cdx.

CXCL12 = conditions: cited from earlier work
SuHx Wistar rats = test: SU-5416/Hypoxia rat model of pulmonary hypertension; type: in vivo; conditions: 100 mg/kg/day i.p.; for Pulmonary vascular remodeling: H&E and alpha-SMA staining of lung sections; for Total pulmonary vascular resistance (TPVR): curative protocol, vs vehicle-treated SuHx rats
Procedure: FIG. 6A: In vivo effect of chalcone-4 and compound (1) in the SU-5416 (20 mg/kg)/Hypoxia (SuHx) rat model of PH on total pulmonary vascular resistance, cardiac output and right ventricular hypertrophy. Male Wistar rats (100 g upon arrival in the laboratory; Janvier Labs, France) served as experimental subjects. SU-5416 (20 mg/kg) was injected subcutaneously and the rats were placed in normobaric hypoxia (10% FiO2) for 3 weeks for PH to develop, and were then left for 2 weeks in normoxia. Rats were treated either with chalcone-4 or compound (1) at a dose of 100 mg/kg i.p. as compared with vehicle-treated SuHx rats. In addition, a group of healthy rats with no PH were used as the control group (CTR). The total pulmonary vascular resistance (TPVR), cardiac output (CO), right ventricular hypertrophy (RVH) assessed by the Fulton index [right/(left+septum) ventricular weight] were obtained in CTR and SuHx rats treated with chalcone-4 and compound (1). The bar graph represents means SEM. *** p-value <0.001, **** p-value <0.0001 versus CTR rats. # p-value <0.05,### p-value <0.001 versus vehicle-treated SuHx rats.
The activity of compound (1) vs chalcone-4 was evaluated in an animal model of pulmonary hypertension (PH) (by convention, animal models are still referred to as having PH rather than PAH): the SU-5416 (20 mg/Kg)/Hypoxia rat model. Chalcone-4 and compound (1) (100 mg/kg/day) were prepared in carboxymethylcellulose (CMC 1% in saline) and administered I.P. Rats were treated for 3 weeks in a curative protocol, and were then left for 2 weeks in normoxia. An additional group of healthy rats with no PH was used as the control group (CTR).
PH was induced by a single subcutaneous injection of SU5416 (20 mg/kg) in Wistar rats, followed by a 3-week exposure to chronic hypoxia (10% FiO2). Right ventricular structure and function was assessed by echocardiography using the GE Vivid 9 ultrasound. Before treatment begins, echocardiography measurements of each rat have been performed to validate the presence of PH in animals (acceleration time/ejection time). Then, the rats were randomized by numbering the animals from 1 to 4 in each cage at the beginning of the study, and then looking at a random number table. Each rat has been treated by intraperitoneal administration. At the end of the treatment period, a right heart catheterization (RHC) was performed to determine the PH severity and the cardiac function.
Animals were anesthetized with isoflurane. A polyvinyl catheter was introduced into the right jugular vein and pushed through the right ventricle into the pulmonary artery. Cardiac output in rats was measured using the thermodilution method.
After measurement of hemodynamic parameters, the thorax was opened and the left lung immediately removed and frozen. The right lung was fixed in the distended state with formalin buffer. The right ventricular hypertrophy assessed by the Fulton index [weight ratio of right ventricle (RV) and (left ventricle (LV)+septum)] and the percentage of wall thickness [(2× medial wall thickness/external diameter)×100] and of muscularized vessels were determined as previously described^21.
Histological sections were stained with hematoxylin and eosin, and immunohistochemistry for alpha-smooth muscle actin was performed as previously described^1′. Images were taken with a microscope Nikon Eclipse 80i and NIS-Elements BR 2.30 software.

[2] = tested on: human peripheral blood CD4+ lymphocytes; conditions: cited from earlier work
Stability after 24 h = type: physicochemical; conditions: monitored after 24 h
Procedure: as §1

CCL22 = biological target: T1, CCL22 (Homo sapiens, UniProt O00626); test: Selectivity towards chemokine CCL22; conditions: 5 μM
T1 sequence (O00626 25-93): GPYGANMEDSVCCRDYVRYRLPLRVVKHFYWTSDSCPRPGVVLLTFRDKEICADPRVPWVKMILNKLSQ
Procedure: Furthermore, the selectivity of (1) was also evaluated towards two other chemokines, namely CCL17 and CCL22, with no activity at 5 μM (data not shown).

[3] = PBS with (2-hydroxypropyl)-cyclodextrin (Cdx) 10% w/w, aqueous with cosolvent or surfactant or cyclodextrin, PBS/Cdx (10% w/w), read-out: Solubility PBS/Cdx
[4] = PBS, aqueous buffer, read-out: Solubility PBS
[5] = vs SuHx rats treated with vehicle or chalcone-4

Row | Structure (SMILES) | solubility [1, 3] | solubility [1, 4] | Intracellular calcium responses (CXCL12) | Pulmonary vascular remodeling (SuHx Wistar rats) | Total pulmonary vascular resistance (TPVR) (SuHx Wistar rats) | Chemotaxis of human peripheral blood CD4+ lymphocytes [2] | Stability PBS/Cdx (Stability after 24 h) | Stability PBS (Stability after 24 h) | Solubility compared with chalcone-4 ([1]; in words) | Activity towards CCL22 (CCL22) | Cardiac output (SuHx Wistar rats; [5]) | Fulton index (right ventricular hypertrophy) (SuHx Wistar rats; [5])
1 | COc1cc(/C=C/C(=O)c2ccc(Cl)cc2)ccc1O [Chalcone-4, (E)-1-(4-Chlorophenyl)-3-(4-hydroxy-3-methoxyphenyl)prop-2-en-1-one, reference compound] | > 300 µM | 9 µM (≈ 2.6 µg/mL) | inhibits intracellular calcium responses | substantially attenuated the pulmonary vascular remodeling | substantial decrease | blocks chemotaxis | 100% | 100% |  |  |  | 
2 | COc1cc(-c2cc(-c3ccc(Cl)cc3)nc(=O)[nH]2)ccc1O [compound (1), 4-(4-Chlorophenyl)-6-(4-hydroxy-3-methoxyphenyl)pyrimidin-2(1H)-one] | > 5000 µM | 36.4 µM (≈ 12 µg/mL) |  | substantially attenuated the pulmonary vascular remodeling | substantial decrease |  | 100% | 100% | better than the solubility of “chalcone-4”; also recorded: more soluble | no activity | substantial increase | significant decrease
